The source of these data is patent US5902815A, “Use of 5HT-2A serotonin agonists to prevent adverse effects of NMDA receptor hypofunction” (priority 1996, dated 1999).

“Also recorded” adds a separate entry of the source. Read-outs that look alike come from different tables or passages of the source. A value given as a limit tells only on which side of the number the result lay.

Data set [1] has as its system vacuolated pyramidal neurons of posterior cingulate and retrosplenial (PC/RS) cortices, MK-801 neurotoxicity. Kind of data set: Blocking MK-801 neurotoxicity (vacuolated PC/RS cortical neurons) in rats by serotonergic agents. It is filed as in vivo, adult female rats. The following applies: for ED50: Rattus norvegicus, Pyramidal neuron, read-out: ED50 in blocking MK-801 neurotoxicity, rats. As to the method:
Each test rat also received a 5HT-2A/2C agonist drug (LSD, DOB, DOI, or DOM), while control rats received an inert carrier liquid as a placebo. After 4 hours, the rats were sacrificed, and brain tissue from specific regions which are susceptible to NR/hypo damage (layers III and IV of the posterior cingulate (PC) and retrosplenial (RS) cortices) were examined for vacuoles in the neurons, which are an indicator of toxic neuronal injury induced by NMDA receptor hypofunction.
DOI was purchased from Research Biochemicals International (Natick, Mass.).
(§1) For each test agent, at least 20 rats were used, and at least four dosages were tested.
(§2) The rats were sacrificed four hours after drug administration, and brain tissue from the PC/RS region was histopathologically evaluated by previously described methods using double-blinded techniques (Olney et al 1991). The number of vacuolated PC and RS neurons were counted on each side of the brain at a rostrocaudal level immediately posterior to where the corpus callosum ceases decussating across the midline (approximately 5.6 mm caudal to Bregma; Paxinos & Watson, The Rat Brain in Stereotaxic Coordinates, 2d Ed., 1986).
This drug is widely used in Europe, and is a 5HT-2A agonist but a 5HT-2C antagonist.
It is described in Nozulak et al 1993.

The next data set concerns 5HT2C receptors. The conditions noted are these: Burris et al 1991 or other literature; cited from earlier work.
The test system of data set [2] is NR/hypo-induced vacuoles in PC/RS cortical neurons (MK-801). Briefly: Anti-psychotic drugs and sigma blockers: protection against NR/hypo-induced vacuoles. The format is in vivo, rats. The following applies: for ED50: Rattus norvegicus, Cortical neurone, read-out: ED50 in protecting against NR/hypo-induced vacuoles; for ED50 / activity in protecting against NR/hypo-induced vacuoles (words): ip; for effect on vacuole formation / activity in protecting against NR/hypo-induced vacuoles (words): rats, MK-801; for activity in protecting against NR/hypo-induced vacuoles (words): sulpiride given only 15 minutes prior to MK-801. As to the method: Several of the antipsychotic agents tested (haloperidol, thioridazine and loxapine) are known to interact with both dopamine receptors and sigma receptors.
Control animals received saline or DMSO, but no anti-psychotic drugs. Test animals were injected ip with an antipsychotic drug, listed above and in Table 2. Vacuoles were counted and data were processed as described in Example 1.

The next data set has as its system craving for cocaine. The following applies: Sershen 1994; cited from earlier work.
The next data set concerns humans. The following applies: cited from earlier work; for psychotomimetic reactions / psychosis in humans: NMDA antagonists.
The subject of a further data set is 5HT-2A receptors. The following applies: Burris et al 1991 or other literature; cited from earlier work.
Another data set concerns cerebrocortical neurons. The following applies: cited from earlier work.
The subject of a further data set is schizophrenia. The following applies: cited from earlier work.
In data set [3] the test system is NMDA receptors in chick embryo retina. Briefly: Excitotoxicity in chick embryo retina (NMDA with MK-801, LSD or DOI). The following applies: MK-801 500 nM plus NMDA 40 μM, with or without LSD or DOI 500 nM to 100 μM; n=6 per condition. On the procedure: Several tests were performed to ensure that when a 5HT-2A agonist is administered together with an NMDA antagonist, the 5HT-2A agonist will not interfere with the activity of the NMDA antagonist drug at NMDA receptors.
These experiments were performed using segments of chick embryo retina. This is a widely used model for studying the production and prevention of excitotoxic phenomena, since it is simple and inexpensive. Chick tissue is used, since it tends to provide a better model of adult mammalian tissue than embryonic or juvenile mammalian tissue. Unlike newborn mammals, which are usually blind at birth, baby chicks can see quite well as soon as they emerge from the shell, and the NMDA receptors in chick retinal tissue are fully mature and functional.
In these tests, NMDA was introduced into the incubation medium in a concentration (40 μM) sufficient to produce a fully developed excitotoxic lesion within 30 min, displaying acute degeneration and necrosis of the majority of neurons in the inner layers of the retina.

In data set [4] the test system is pyramidal neurons in layers III and IV of the posterior cingulate (PC) and retrosplenial (RS) cortices. Kind of data set: Neurotoxic reaction to MK-801 in control rats (vacuolated neurons per section). The conditions noted are these: MK-801 0.5 mg/kg sc plus vehicle; ± SEM; n=26. It is filed as in vivo, adult female rats. On the procedure:
as §1, §2

The test system of a further data set is 5HT-2A/2C receptor. Kind of data set: 5HT-2A/2C antagonist block of agonist protection against MK-801 neurotoxicity. The format is in vivo, adult female rats. From the text: The following example confirms that the neuroprotective effects provided by 5HT-2A/2C agonists are mediated through either the 5HT-2A or 5HT-2C receptor (or both), rather than through cross-reactivity at some other receptor or through some other mechanism. This was done by showing that these neuroprotective effects are blocked by selective 5HT-2A/2C antagonists.
Ritanserin is an antagonist drug that selectively blocks activation of 5HT-2A/2C receptors.
The brains were processed and the severity of damage was assessed as described in Example 1. Results were analyzed by analysis of covariance (ANCOVA) where the dose of DOI was the covariate and the presence of ritanserin served as the classification (treatment) variable. The homogeneity of slopes assumption was tested by determining whether there was a significant interaction between the covariate and the treatment variable.

[5] abbreviates: ip, 4 h, MK-801 0.5 mg/kg sc, test compound ip, dose reducing mean vacuolated neurons to 50% of control, 4 h.
[6] abbreviates: Olney et al 1989, Corso et al 1994, adult rat.

As for `CN1CC[C@@H]2CN3CCc4cccc(c43)[C@@H]2C1.O=C(O)/C=C/C(=O)O` [SDZ SER-082], the “effect on MK-801 neurotoxicity” value in data set [1] (selective 5HT-2C antagonist, n=22) is reported as “did not affect MK-801 neurotoxicity, either positively or negatively”. The “activity at 5HT-2C receptors” value with 5HT2C receptors is recorded as “selective 5HT-2C antagonist”.
As for `O=C(CCCN1CCC(O)(c2ccc(Cl)cc2)CC1)c1ccc(F)cc1` [Haloperidol], the ED50 in data set [2] is 5.1 mg/kg.
With `CC[C@H]1C[C@H]2C[C@H]3c4[nH]c5ccc(OC)cc5c4CCN(C2)[C@@H]13` [ibogaine], the “suppression of craving for cocaine” value in the data set on craving for cocaine is recorded as “can suppress the craving for cocaine”.
For `CCN(CC)C(=O)N[C@H]1C=C2c3cccc4[nH]cc(c34)C[C@H]2N(C)C1` [Lisuride], the “prevention of the neurotoxic action of MK-801 / vacuole formation” value in data set [1] (rats, 5HT-2A/2C agonists, ip) is “can prevent vacuole formation caused by MK-801”. The hallucinations entry with humans (in vivo) is listed as “does not cause hallucinations”.
Turning to `Cc1cc2c(s1)Nc1ccccc1N=C2N1CCN(C)CC1` [Olanzapine], in data set [2], the ED50 is 1.4 mg/kg and the “effect on vacuole formation” value is “shown to reduce vacuole formation”.
For the compound `COc1cc(CC(C)N)c(OC)cc1Br` (stereo not shown) [DOB, 1-(2,5-dimethoxy-4-bromophenyl)-2-aminopropane], the “activity at 5HT-2A receptors” value in the data set with 5HT-2A receptors is “selectively activate 5HT-2A and 5HT-2C receptors with higher affinity than other 5HT receptors”. Moreover, in data set [1] (setting [5]), the ED50 came to 0.36 mg/kg. The “activity at 5HT-2C receptors” value in the data set on 5HT2C receptors was “selectively activate 5HT-2A and 5HT-2C receptors with higher affinity than other 5HT receptors”.
As for `CCN(CC)C(=O)[C@@H]1C=C2c3cccc4[nH]cc(c34)C[C@H]2N(C)C1` [LSD, lysergic acid diethylamide], the “activity at 5HT-2A receptors” value in the data set on 5HT-2A receptors is “agonizes 5HT-2A and 5HT-2C receptors”. The ED50 in data set [1] (setting [5]) was 0.68 mg/kg. For the same compound, the “ED50 in blocking MK-801 neurotoxicity” value in [1] (rats, MK-801 0.5 mg/kg sc, test compound ip, dose reducing mean vacuolated neurons to 50% of control, 4 h, 240 min) turned out to be 0.67 mg/kg. Further, the “activity at 5HT-2C receptors” value with 5HT2C receptors was “agonizes 5HT-2A and 5HT-2C receptors”.
Take `c1ccc(C2(N3CCCCC3)CCCCC2)cc1` [Phencyclidine]: in the data set on cerebrocortical neurons (setting [6]), the “pathomorphological changes in brain” value is on record as “produce pathomorphological changes in various corticolimbic regions of the adult rat brain”. Besides, in the data set on humans, the “psychotomimetic reactions / psychosis in humans” value is “can induce a psychosis which is clinically indistinguishable from schizophrenia”.
As to `CNC1(c2ccccc2Cl)CCCCC1=O` (stereo not shown) [Ketamine], the “pathomorphological changes in brain” value with cerebrocortical neurons (rat, in vivo) was “cause pathomorphological changes in the cerebral cortex of adult rats”. Moreover, the “psychotomimetic reactions / psychosis in humans” value in the data set on humans is “produces symptoms in normal humans that are indistinguishable from the symptoms of psychosis and thought disorder seen in schizophrenia”. The duration of action entry with humans (anesthetic, intravenous) is “about 15 minutes”.
For the compound `CCNC1(c2cccs2)CCCCC1=O` (stereo not shown) [Tiletamine], the “pathomorphological changes in brain” value in the data set with cerebrocortical neurons (setting [6]) is “cause pathomorphological changes in the cerebral cortex of adult rats”.
`COc1cc(CC(C)N)c(OC)cc1C` (stereo not shown) [DOM, 1-(2,5-dimethoxy-4-methylphenyl)-2-aminopropane]: in the data set with 5HT-2A receptors, the “activity at 5HT-2A receptors” value was “selectively activate 5HT-2A and 5HT-2C receptors with higher affinity than other 5HT receptors”. The ED50 in [1] (setting [5]) turned out to be 0.81 mg/kg. Also, the “activity at 5HT-2C receptors” value with 5HT2C receptors is “selectively activate 5HT-2A and 5HT-2C receptors with higher affinity than other 5HT receptors”.
`N[C@@H](Cc1c[nH]c2ccccc12)C(=O)O` [tryptophan]: the “effect on symptoms of schizophrenia” value with schizophrenia (schizophrenic patients) was “can exacerbate the symptoms and displays of schizophrenia”.
As for `CCNC(C)Cc1cccc(C(F)(F)F)c1` (stereo not shown) [fenfluramine], the “effect on symptoms of schizophrenia” value in the data set with schizophrenia (schizophrenic patients) is “can exacerbate the symptoms and displays of schizophrenia”.
Consider `COc1cccc([C@H](O)C2CCN(CCc3ccc(F)cc3)CC2)c1OC` [MDL 100,907], for which, in the data set on 5HT-2A receptors, the “activity at 5HT-2A receptors” value is reported as “preferentially antagonizes 2A receptors”. Also, the “activity at 5HT-2C receptors” value with 5HT2C receptors is given as “does not substantially affect 2C receptors”.
As for `CCN1CCCC1CNC(=O)c1cc(S(N)(=O)=O)ccc1OC` (stereo not shown) [Sulpiride], in [2], the ED50 was over 200 mg/kg and the “activity in protecting against NR/hypo-induced vacuoles (words)” value is listed as “Inactive”. Moreover, the “activity in protecting against NR/hypo-induced vacuoles (words)” value in data set [2] (listed as sulpiride) was “inactive”.
Turning to `Clc1ccc2c(c1)C(N1CCNCC1)=Nc1ccccc1O2` [Amoxapine], the ED50 in [2] amounted to 75 mg/kg.
Turning to `CN1CCN(C2=Nc3cc(F)ccc3Cc3ccccc32)CC1` [Fluperlapine], in data set [2], the ED50 came to 2.3 mg/kg and the “effect on vacuole formation” value is recorded as “shown to reduce vacuole formation”.
In the case of `C[C@]12N[C@H](Cc3ccccc31)c1ccccc12` [MK-801, (+)-5-methyl-10,11-dihydro-5H-di[a,d]cyclohepten-5,10-imine], the “protection against NMDA excitotoxic damage” value in [3] is “completely protected against excitotoxic damage; also recorded: showed no cytopathology”. Besides, the “mean number of vacuolated neurons per section” value in data set [4] is reported as 223±10.5.
Consider `CN1CCN(C2=Nc3ccccc3Oc3ccc(Cl)cc32)CC1` [Loxapine], for which the ED50 in data set [2] amounted to 23.6 mg/kg.
For `C[C@@H]1CN(CCCn2c3ccccc3c3ccccc32)C[C@H](C)N1` [Rimcazole], the ED50 in data set [2] was 17.8 mg/kg.
For `CSc1ccc2c(c1)N(CCC1CCCCN1C)c1ccccc1S2` (stereo not shown) [Thioridazine], the ED50 in data set [2] turned out to be 55.3 mg/kg.
The same measure, in the same setting: the figure for `Cc1ccccc1N=C(N)Nc1ccccc1C` [Di(2-tolyl)guanidine, di(2-tolyl)guanidine] is 22.2 mg/kg.
Consider `Cc1nc2sccn2c(=O)c1CCN1CCC(=C(c2ccc(F)cc2)c2ccc(F)cc2)CC1` [ritanserin], for which the “effect on positive symptoms of schizophrenia” value in the data set with schizophrenia (hallucinations, delusions) is listed as “did not help relieve "positive" symptoms”. In addition, the “effect on symptoms of schizophrenia” value in the data set on schizophrenia (schizophrenic patients) was “only helped relieve certain "negative" symptoms of schizophrenia”. Besides, in the data set on schizophrenia (schizophrenic patients, mCPP), the “effect on exacerbation of schizophrenia by mCPP” value is “can be blocked”. Further, the “effect of antagonist on DOI's protection” value in the data set with 5HT-2A/2C receptor (ritanserin 0.03 mg/kg ip plus various doses of DOI, F(1,84)=23.36, p<0.0005) was “competitively blocks DOI's protective effects against the toxic side effects of MK-801; also recorded: significantly interfered with DOI's protection”. The “shift of the DOI blocking curve by ritanserin” value in the data set on 5HT-2A/2C receptor (ritanserin 0.03 mg/kg ip, FIG. 3) is reported as “shifted the blocking curve to the right”.
Take `COc1cc(CC(C)N)c(OC)cc1I` (stereo not shown) [DOI, 1-(2,5-dimethoxy-4-iodophenyl)-2-aminopropane]: in the data set on 5HT-2A receptors, the “activity at 5HT-2A receptors” value was “selectively activate 5HT-2A and 5HT-2C receptors with higher affinity than other 5HT receptors”. Further, the “protection against NMDA antagonist toxicity with SDZ SER-082 added” value in [1] (DOI n=29, SDZ SER-082 added to block 5HT-2C receptor) was “found to protect against NMDA antagonist toxicity”. The ED50 in [1] (setting [5]) is 1.05 mg/kg. Moreover, the “activity at 5HT-2C receptors” value in the data set with 5HT2C receptors was “selectively activate 5HT-2A and 5HT-2C receptors with higher affinity than other 5HT receptors”.
